Measurements taken from ChEMBL document CHEMBL5335829, “Akedanones A-C, In Vitro and In Vivo Antiplasmodial 2,3-Dihydronaphthoquinones Produced by Streptomyces sp. K20-0187” (J Nat Prod, 2024).
pIC50: −log10 of the molar value. Converted amounts (≈) assume the structure as drawn. The source made the active and inactive calls. The calls are words filed in the database; no cut-off is given here.

Experiments:
[1] = system: Plasmodium falciparum; assay: Antiplasmodial activity against chloroquine-resistant Plasmodium falciparum K1 assessed as parasite growth inhibition; assay type: functional, organism-based
[2] = system: Plasmodium falciparum; assay: Antiplasmodial activity against chloroquine-sensitive Plasmodium falciparum FCR3 assessed as parasite growth inhibition; assay type: functional, organism-based
[3] = Cytotoxicity against human MRC5 cells assessed as inhibition of cell growth; assay type: toxicity, cell-based
[4] = Selectivity index, ratio of IC50 for cytotoxicity against human MRC5 cells assessed as inhibition of cell growth to IC50 for antiplasmodial activity against chloroquine-resistant Plasmodium falciparum K1 assessed as parasite growth inhibition; assay type: toxicity, cell-based; settings: MRC5 cells versus Plasmodium falciparum K1, read-out: Ratio IC50
[5] = Selectivity index, ratio of IC50 for cytotoxicity against human MRC5 cells assessed as inhibition of cell growth to IC50 for antiplasmodial activity against […] assessed as parasite growth inhibition; assay type: toxicity, cell-based; settings: MRC5 cells versus Plasmodium falciparum FCR3, read-out: Ratio IC50
[6] = system: Staphylococcus aureus; assay: Antimicrobial activity against Staphylococcus aureus KB210 ATCC 6538P at > 10 ug incubated for 1 to 2 days by paper disc method; assay type: functional, organism-based; settings: dose > 10.0 µg, time 1-2 day
[7] = system: Plasmodium berghei; assay: Antiplasmodial activity against Plasmodium berghei infected in ICR mouse model assessed as reduction in parasitaemia at 5 mg/kg, ip measured for 4 days by peters 4 day suppressive test; assay type: functional; set-up: scale not given: the % may be the effect or the level left
[8] = Acute toxicity in ICR mouse assessed as sedation at 60 mg/kg, ip and measured for 2 hrs; assay type: organism-based; settings: in vivo
[9] = system: Staphylococcus aureus; assay: Antimicrobial activity against Staphylococcus aureus KB210 ATCC 6538P assessed as reduction in bacterial growth incubated for 1 to 2 days by paper disc method; assay type: functional, organism-based; settings: time 1-2 day
[10] = system: Kocuria rhizophila; assay: Antimicrobial activity against Kocuria rhizophila KB212 ATCC 9341 assessed as reduction in bacterial growth incubated for 1 to 2 days by paper disc method; assay type: functional, organism-based; settings: time 1-2 day
[11] = system: Escherichia coli; assay: Antimicrobial activity against Escherichia coli KB213 NIHJ assessed as reduction in bacterial growth incubated for 1 to 2 days by paper disc method; assay type: functional, organism-based; settings: time 1-2 day
[12] = system: Xanthomonas oryzae; assay: Antimicrobial activity against Xanthomonas oryzae KB88 assessed as reduction in bacterial growth incubated for 1 to 2 days by paper disc method; assay type: functional, organism-based; settings: time 1-2 day
[13] = system: Candida albicans; assay: Antimicrobial activity against Candida albicans KF assessed as reduction in […] growth KF1 ATCC 64584 incubated for 1 to 2 days by paper disc method; assay type: functional, organism-based; settings: time 1-2 day
[14] = Toxicity in ICR mouse assessed as body weight loss at 5 mg/kg, ip measured for 4 days; assay type: organism-based; settings: in vivo, 96 h, time 4 day
[15] = system: Plasmodium falciparum; assay: Antiplasmodial activity against Plasmodium falciparum Dd2 assessed as inhibition of parasite growth; assay type: functional, organism-based
[16] = system: Plasmodium falciparum; assay: Antimalarial activity against chloroquine-resistant Plasmodium falciparum K1 assessed as parasite growth inhibition; assay type: functional, organism-based
[17] = Selectivity index, ratio of IC50 for cytotoxicity against human MRC5 cells assessed as inhibition of cell growth to IC50 for antimalarial activity against chloroquine-resistant Plasmodium falciparum K1 assessed as parasite growth inhibition; assay type: toxicity, cell-based; settings: MRC5 cells versus Plasmodium falciparum K1, read-out: Ratio IC50
[18] = Selectivity index, ratio of IC50 for cytotoxicity against human MRC5 cells assessed as inhibition of cell growth to IC50 for antimalarial activity against […] assessed as parasite growth inhibition; assay type: toxicity, cell-based; settings: MRC5 cells versus Plasmodium falciparum FCR3, read-out: Ratio IC50
[19] = system: Kocuria rhizophila; assay: Antimicrobial activity against Kocuria rhizophila KB212 ATCC 9341 at 30 ug incubated for 1 to 2 days by paper disc method; assay type: functional, organism-based; settings: dose 30.0 µg, time 1-2 day
[20] = system: B16; assay: Cytotoxicity against mouse B16 cells assessed as reduction in cell growth incubated for 3 days; assay type: functional, cell-based; settings: B16, 72 h
[21] = system: HeLa S3; assay: Cytotoxicity against human HeLa S3 cells assessed as reduction in cell growth incubated for 3 days; assay type: functional, cell-based; settings: HeLa S3, 72 h

Row | SMILES | pIC50 [1] | pIC50 [2] | pIC50 [3] | selectivity ratio [4] | selectivity ratio [5] | Activity [6] | Activity [7] | Activity [9] | Activity [10] | Activity [11] | Activity [12] | Activity [13] | Activity [14] | further results
1 | C=CC(C)(C)c1c(O)cc2c(c1O)C(=O)[C@@]1(C)O[C@@]1(CC=C(C)C)C2=O | 6.70 | 7.10 | 6.15 | 3.5 | 8.8 | Active | 47.6% | Active | Active | Active | Active | Active | Non-Toxic | Activity [8]: Non-Toxic
2 | C[C@H]1[C@H](OC(=O)CCC(=O)O)O[C@@H]2O[C@@]3(C)CC[C@H]4[C@H](C)CC[C@@H]1[C@@]24OO3 [ARTESUNATE] |  |  |  |  |  |  | 94.2% |  |  |  |  |  | Non-Toxic | 
3 | C=CC(C)(C)c1c(O)cc2c(c1O)C(=O)[C@@](C)(O)[C@@H](CC=C(C)C)C2=O | 4.84 | 4.66 | 4.16 | 4.7 | 3.2 | Active |  | Active | Active | Active | Active | Active |  | 
4 | CC(C)=CCC1=C(O)C(=O)c2c(O)ccc(O)c2C1=O |  |  |  |  |  |  |  |  |  |  |  |  |  | IC50 [15]: 0.82 µg/mL (≈ 2.99 µM)
5 | C=CC(C)(C)c1c(O)cc2c(c1O)C(=O)[C@@](C)(O)[C@H](CC=C(C)C)C2=O | 4.36 | 4.29 | 4.03 | 2.2 | 1.8 | Active |  | Active | Active | Active | Active | Active |  | 
6 | C[C@@H]1CC[C@H]2[C@@H](C)C(=O)O[C@@H]3O[C@@]4(C)CC[C@@H]1[C@]32OO4 [ARTEMISININ] |  |  | < 4.60 |  |  |  |  |  |  |  |  |  |  | pIC50 [16]: 7.52; selectivity ratio [17]: > 800; selectivity ratio [18]: > 800
7 | COC1=C(C)C(=O)c2c(cc3c(c2O)C(C)(CCC=C(C)C)C(C)O3)C1=O (centres undefined) | 6.52 | 7.22 | 5.77 | 5.7 | 28.3 |  | 43.1% | Active | Active | Active | Active | Active | Non-Toxic | Activity [19]: inactive
8 | CCN(CC)CCCC(C)Nc1ccnc2cc(Cl)ccc12 (centres undefined) [CHLOROQUINE] |  |  | < 4.60 |  |  |  |  |  |  |  |  |  |  | 
9 | COC1=C(C)C(=O)c2c(cc(O)c3c2O[C@H](C)[C@]3(C)CCC=C(C)C)C1=O |  |  |  |  |  |  |  |  |  |  |  |  |  | IC50 [20]: 0.63 µg/mL (≈ 1.7 µM); IC50 [21]: 1.22 µg/mL (≈ 3.29 µM)
